Assays:
[1] = molecular target: T1, TUT7 (Homo sapiens, UniProt Q5VYS8); assay: cryo-EM structure, […] Å; assay type: binding; conditions: pre-let-7g, 2 mM CaCl2, 0.5 mM UTPαS, pH 7.8; catalytic pocket of the CM (active site)
T1 construct: full-length wild type 1-1495; TEV-cleavable N-terminal His6-GST tag, C-terminal twin Strep tag; E. coli KRX
T1 sequence (Q5VYS8 1-1495): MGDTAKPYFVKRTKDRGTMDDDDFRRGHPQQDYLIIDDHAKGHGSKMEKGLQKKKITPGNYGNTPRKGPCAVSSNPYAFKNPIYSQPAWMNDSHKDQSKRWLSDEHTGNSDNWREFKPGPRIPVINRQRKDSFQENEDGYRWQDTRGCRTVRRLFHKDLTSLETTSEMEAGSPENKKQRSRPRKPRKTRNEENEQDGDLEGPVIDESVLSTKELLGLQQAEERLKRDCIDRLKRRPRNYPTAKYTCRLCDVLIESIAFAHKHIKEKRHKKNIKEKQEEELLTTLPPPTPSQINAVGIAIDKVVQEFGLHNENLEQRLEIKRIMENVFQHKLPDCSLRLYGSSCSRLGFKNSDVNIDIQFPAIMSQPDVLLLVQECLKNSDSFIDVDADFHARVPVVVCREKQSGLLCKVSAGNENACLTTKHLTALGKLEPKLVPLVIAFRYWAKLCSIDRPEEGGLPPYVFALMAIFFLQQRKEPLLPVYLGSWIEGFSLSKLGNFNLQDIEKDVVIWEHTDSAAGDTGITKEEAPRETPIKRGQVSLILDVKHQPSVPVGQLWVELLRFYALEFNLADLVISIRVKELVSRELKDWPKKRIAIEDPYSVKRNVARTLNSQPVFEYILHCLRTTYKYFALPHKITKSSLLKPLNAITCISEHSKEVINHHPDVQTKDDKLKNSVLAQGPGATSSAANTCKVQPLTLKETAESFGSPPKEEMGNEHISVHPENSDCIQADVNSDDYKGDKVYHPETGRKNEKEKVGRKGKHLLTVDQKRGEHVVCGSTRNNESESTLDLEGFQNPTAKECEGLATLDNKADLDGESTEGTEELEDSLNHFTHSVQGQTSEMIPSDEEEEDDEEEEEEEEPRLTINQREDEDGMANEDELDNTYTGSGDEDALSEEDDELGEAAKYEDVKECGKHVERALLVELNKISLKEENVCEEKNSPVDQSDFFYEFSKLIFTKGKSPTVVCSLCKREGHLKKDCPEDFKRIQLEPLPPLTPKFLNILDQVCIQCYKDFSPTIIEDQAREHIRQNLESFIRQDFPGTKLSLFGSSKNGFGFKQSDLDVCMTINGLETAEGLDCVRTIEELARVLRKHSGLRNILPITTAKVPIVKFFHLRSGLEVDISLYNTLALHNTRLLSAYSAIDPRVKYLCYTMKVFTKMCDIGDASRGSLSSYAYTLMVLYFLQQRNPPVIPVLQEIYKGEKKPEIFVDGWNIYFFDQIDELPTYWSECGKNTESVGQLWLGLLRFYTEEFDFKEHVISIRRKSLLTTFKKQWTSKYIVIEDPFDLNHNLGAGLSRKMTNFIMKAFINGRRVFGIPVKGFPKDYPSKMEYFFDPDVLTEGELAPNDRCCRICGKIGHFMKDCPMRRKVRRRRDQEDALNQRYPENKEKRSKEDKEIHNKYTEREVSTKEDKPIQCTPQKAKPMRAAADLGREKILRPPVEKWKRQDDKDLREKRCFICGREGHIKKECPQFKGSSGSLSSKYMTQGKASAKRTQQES

[2] = molecular target: T1, TUT7; assay: in vitro uridylation of labelled pre-let-7g, denaturing PAGE; assay type: biochemical; conditions: pre-let-7g RNA co-substrate, no LIN28A, 0.5 mM UTP, 5 mM MgCl2, 50 µM ZnCl2, pH 7.8, 37 °C
[3] = molecular target: T2, human terminal uridylyltransferase 7 (TUT7), full length (1-1495) (human, UniProt Q5VYS8 1-1495); assay: cryo-EM structure; ternary complexes of TUT7 or TUT4 with pre-let-7g RNA and LIN28A mixed at a molar ratio of 1:1.5:2, overnight on ice with 0.5 mM UTPalphaS, 2 mM DTT, 2 mM CaCl2, then SEC in 20 mM HEPES pH 7.8, 100 mM NaCl; conditions: both partners purified
T2 construct: TUT7 (ZCCHC6), human, residues 1-1495, wild type, synthesised gene; The His6-GST tag is cleavable by tobacco etch virus protease; Unmodified (not PEGylated) enzyme was used for the complexes; also called ZCCHC6; source: E. coli KRX, purified (Strep-XT 4Flow beads, Heparin column, size-exclusion chromatography)
T2 sequence (looked up): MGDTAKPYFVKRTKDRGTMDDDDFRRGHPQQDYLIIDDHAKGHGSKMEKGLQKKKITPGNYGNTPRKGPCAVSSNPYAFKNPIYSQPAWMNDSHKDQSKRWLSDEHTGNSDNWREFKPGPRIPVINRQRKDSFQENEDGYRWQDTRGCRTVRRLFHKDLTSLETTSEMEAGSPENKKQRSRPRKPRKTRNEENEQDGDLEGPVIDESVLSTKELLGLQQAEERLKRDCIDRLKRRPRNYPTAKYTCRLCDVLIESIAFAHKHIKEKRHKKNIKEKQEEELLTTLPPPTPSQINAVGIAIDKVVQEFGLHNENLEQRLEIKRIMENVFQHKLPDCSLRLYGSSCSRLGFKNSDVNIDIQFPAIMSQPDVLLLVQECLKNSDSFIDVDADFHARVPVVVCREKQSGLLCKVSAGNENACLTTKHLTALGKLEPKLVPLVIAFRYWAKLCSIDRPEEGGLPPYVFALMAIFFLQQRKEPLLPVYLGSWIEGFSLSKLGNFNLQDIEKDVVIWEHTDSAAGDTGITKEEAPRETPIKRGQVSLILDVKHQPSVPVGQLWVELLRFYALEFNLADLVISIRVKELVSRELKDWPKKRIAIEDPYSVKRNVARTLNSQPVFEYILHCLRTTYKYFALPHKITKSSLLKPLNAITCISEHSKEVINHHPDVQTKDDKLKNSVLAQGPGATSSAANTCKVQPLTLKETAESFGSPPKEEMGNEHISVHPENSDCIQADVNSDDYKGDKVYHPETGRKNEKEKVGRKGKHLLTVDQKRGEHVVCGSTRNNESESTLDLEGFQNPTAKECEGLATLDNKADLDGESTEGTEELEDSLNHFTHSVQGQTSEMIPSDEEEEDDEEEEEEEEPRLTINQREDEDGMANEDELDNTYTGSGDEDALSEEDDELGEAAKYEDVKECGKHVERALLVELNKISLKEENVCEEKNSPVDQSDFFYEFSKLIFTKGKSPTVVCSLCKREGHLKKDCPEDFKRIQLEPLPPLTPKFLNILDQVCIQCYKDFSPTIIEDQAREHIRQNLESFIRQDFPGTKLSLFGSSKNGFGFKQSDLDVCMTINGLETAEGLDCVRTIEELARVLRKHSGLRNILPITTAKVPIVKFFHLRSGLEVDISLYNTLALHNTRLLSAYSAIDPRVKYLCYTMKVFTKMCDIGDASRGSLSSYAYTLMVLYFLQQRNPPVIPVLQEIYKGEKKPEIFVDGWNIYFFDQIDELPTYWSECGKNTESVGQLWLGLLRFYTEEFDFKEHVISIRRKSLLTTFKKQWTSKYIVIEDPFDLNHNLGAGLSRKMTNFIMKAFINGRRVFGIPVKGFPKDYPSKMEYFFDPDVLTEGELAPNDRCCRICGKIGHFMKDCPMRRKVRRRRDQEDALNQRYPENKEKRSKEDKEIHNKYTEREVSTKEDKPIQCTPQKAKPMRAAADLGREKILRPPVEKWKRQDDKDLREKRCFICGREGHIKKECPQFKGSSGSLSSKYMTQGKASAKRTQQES

[4] = molecular target: T3, TUT7 (ZCCHC6) (Homo sapiens, UniProt Q5VYS8 1-1495); assay: cryo-EM; UTPalphaS; binary complex, 3.55 A; EMSA: 20 mM HEPES pH 7.8, 100 mM NaCl, 2 mM CaCl2, 50 uM ZnCl2, 5% glycerol, 5 mM DTT, 0.5 mM UTP, RNase inhibitor, on ice 30 min; 0.1 uM RNA, 0.2 uM TUT, 0.3 uM LIN28A; native gel in 1x TBE at 4 C; conditions: protein: recombinant; tags: N-term His6-GST (TEV cleavable), C-term twin-Strep; hairpin, 1 nt 3' overhang
T3 sequence: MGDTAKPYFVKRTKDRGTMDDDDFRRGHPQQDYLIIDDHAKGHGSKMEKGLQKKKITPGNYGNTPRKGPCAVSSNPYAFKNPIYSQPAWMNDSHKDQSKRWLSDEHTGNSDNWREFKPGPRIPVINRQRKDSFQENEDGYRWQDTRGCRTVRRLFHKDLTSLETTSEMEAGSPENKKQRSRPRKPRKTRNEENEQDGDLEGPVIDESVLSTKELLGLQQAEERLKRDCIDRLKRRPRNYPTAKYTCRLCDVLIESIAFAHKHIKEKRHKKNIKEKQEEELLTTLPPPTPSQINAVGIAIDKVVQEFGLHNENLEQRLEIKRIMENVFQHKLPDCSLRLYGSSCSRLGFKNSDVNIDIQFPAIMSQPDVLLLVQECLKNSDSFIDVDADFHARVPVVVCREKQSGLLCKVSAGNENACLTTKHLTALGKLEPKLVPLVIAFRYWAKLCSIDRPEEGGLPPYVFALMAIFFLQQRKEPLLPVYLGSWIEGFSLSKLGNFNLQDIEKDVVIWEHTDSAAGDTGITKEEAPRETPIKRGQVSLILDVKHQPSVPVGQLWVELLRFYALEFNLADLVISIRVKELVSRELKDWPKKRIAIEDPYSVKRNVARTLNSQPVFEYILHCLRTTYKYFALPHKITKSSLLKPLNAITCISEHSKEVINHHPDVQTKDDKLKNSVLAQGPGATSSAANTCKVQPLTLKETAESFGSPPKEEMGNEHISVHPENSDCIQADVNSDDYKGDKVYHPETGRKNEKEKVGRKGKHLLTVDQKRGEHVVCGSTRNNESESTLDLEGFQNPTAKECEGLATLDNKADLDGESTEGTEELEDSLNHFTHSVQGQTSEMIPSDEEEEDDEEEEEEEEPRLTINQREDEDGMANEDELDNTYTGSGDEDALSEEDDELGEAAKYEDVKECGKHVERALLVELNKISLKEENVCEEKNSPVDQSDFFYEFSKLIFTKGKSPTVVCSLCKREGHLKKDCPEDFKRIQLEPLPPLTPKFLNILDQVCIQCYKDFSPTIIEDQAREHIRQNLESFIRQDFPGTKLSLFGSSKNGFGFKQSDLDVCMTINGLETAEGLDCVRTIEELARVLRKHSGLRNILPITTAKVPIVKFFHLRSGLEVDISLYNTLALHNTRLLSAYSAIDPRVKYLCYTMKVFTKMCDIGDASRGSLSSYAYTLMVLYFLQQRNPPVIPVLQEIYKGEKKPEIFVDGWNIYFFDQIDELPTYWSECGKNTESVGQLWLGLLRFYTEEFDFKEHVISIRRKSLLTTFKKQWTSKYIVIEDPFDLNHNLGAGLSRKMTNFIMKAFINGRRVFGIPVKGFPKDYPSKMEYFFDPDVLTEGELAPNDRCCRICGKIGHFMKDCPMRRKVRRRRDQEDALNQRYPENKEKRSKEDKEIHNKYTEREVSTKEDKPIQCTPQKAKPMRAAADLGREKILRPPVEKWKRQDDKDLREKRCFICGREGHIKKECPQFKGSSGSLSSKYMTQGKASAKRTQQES

O=c1ccn([C@@H]2O[C@H](COP(O)(=S)OP(=O)(O)OP(=O)(O)O)[C@@H](O)[C@H]2O)c(=O)[nH]1 (stereo partly shown) [UTPαS] was tested, and the “cryo-EM structure, 3.55 Å” value [1] was “UTPαS bound and stabilized by the critical residues; F1045, S1047, Q1124, L1126, N1130”.

In the case of O=c1ccn([C@@H]2O[C@H](COP(=O)(O)OP(=O)(O)OP(=O)(O)O)[C@@H](O)[C@H]2O)c(=O)[nH]1 [UTP], the “in vitro uridylation of labelled pre-let-7g, denaturing PAGE” value [2] is reported as “In vitro activity assays for TUT7 showing mono-uridylation activity in the absence of LIN28A”.

B1: human LIN28A (natural protein)
chain: MGSVSNQQFAGGCAKAAEEAPEEAPEDAARAADEPQLLHGAGICKWFNVRMGFGFLSMTARAGVALDPPVDVFVHQSKLHMEGFRSLKEGEAVEFTFKKSAKGLESIRVTGPGGVFCIGSERRPKGKSMQKRRSKGDRCYNCGGLDHHAKECKLPPQPKKCHFCQSISHMVASCPLKAQQGPSAQGKPTYFREEEEEIHSPTLLPEAQN
notes: LIN28A, human, synthesised gene; Expressed as an N-terminal His6-GST fusion; removal of the tag is not described; The phrase 'full-length wild-type human TUT7 and human LIN28A' may or may not mean that LIN28A was full length; Only the ZK domain is resolved in the maps
B1: binds [3].

B2: pre-let-7g (structured_RNA)
RNA: UGAGGUAGUAGUUUGUACAGUUUGAGGGUCUAUGAUACCACCCGGUACAGGAGAUAACUGUACAGGCCACUGCCUUGC
B2: binds [4].
